Target: T1, ALK C1156Y (Homo sapiens, UniProt Q9UM73, C1156Y)
T1 construct: purchased Thermo Fisher Scientific (Life Technologies) SelectScreen
Assay: SelectScreen LanthaScreen
Format: binding
Settings: read-out: % displacement
In short: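 Percent values come from Thermo SelectScreen profiling of NU5455, combining activity and binding assays. CSF1R was run in Z'LYTE format at Km app ATP, and CAMK1 in Adapta format with ATP listed at 10.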

T1 sequence (Q9UM73 19-1620 C1156Y): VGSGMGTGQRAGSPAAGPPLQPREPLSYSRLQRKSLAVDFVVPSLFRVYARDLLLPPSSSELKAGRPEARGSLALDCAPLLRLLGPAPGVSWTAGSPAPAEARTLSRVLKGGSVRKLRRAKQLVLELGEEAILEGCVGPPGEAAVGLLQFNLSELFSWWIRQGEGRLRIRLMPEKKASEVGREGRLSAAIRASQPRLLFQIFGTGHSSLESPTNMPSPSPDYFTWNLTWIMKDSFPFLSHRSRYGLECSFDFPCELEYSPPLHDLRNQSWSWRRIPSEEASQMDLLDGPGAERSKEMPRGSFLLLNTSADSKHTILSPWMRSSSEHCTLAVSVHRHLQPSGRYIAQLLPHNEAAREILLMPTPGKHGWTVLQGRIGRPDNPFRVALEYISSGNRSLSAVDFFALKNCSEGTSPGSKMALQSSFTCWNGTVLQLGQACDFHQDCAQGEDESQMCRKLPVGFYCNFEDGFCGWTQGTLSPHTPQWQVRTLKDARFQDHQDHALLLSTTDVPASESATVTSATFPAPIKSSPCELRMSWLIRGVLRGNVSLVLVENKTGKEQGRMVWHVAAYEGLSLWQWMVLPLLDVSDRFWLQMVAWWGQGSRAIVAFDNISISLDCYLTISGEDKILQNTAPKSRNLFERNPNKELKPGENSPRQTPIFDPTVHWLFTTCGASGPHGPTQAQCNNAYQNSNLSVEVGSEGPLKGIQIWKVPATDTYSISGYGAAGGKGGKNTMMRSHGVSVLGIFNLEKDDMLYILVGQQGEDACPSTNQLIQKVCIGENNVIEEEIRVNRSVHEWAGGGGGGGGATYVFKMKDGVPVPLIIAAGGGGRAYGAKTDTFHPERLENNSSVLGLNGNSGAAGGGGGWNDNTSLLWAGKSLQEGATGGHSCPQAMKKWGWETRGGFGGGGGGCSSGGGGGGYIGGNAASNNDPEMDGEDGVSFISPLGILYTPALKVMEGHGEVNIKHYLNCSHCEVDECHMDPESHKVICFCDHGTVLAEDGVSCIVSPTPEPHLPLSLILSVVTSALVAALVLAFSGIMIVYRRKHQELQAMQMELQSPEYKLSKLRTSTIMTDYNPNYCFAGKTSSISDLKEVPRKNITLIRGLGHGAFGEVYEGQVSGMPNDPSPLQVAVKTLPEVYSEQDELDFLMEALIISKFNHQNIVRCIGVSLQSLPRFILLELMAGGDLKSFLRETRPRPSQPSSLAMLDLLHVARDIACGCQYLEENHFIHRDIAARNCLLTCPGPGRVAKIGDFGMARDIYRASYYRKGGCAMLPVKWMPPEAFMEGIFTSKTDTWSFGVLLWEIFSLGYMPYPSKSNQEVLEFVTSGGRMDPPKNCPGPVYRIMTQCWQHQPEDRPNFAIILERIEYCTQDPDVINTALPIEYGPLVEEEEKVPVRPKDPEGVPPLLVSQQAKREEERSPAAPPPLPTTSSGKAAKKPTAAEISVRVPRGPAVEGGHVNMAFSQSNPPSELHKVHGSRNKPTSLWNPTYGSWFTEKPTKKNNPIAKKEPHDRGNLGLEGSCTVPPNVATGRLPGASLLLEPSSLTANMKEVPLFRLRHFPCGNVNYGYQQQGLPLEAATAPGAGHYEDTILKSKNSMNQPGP

Compound `CN(C(=O)CN1CCOCC1)c1ccc2sc3c(-c4cccc5c(=O)cc(N6CC7CCC(C6)O7)oc45)cccc3c2c1` [NU5455] has an inhibition at 1 µM of 0.6%.

— paper PMC6934184, “Selective DNA-PKcs inhibition extends the therapeutic index of localized radiotherapy and chemotherapy” (The Journal of Clinical Investigation, 2019)
